What was measured:
Format in all cases: cell-based
[1] = tested on: g-H2AX foci in MCF-7 cells; experiment: IR-induced g-H2AX foci formation (immunostaining); conditions: 20 μM IBR2, 20 Gy
Experimental: Since interaction between BRCA2 and Rad51 appears to be crucial for the formation of IR-induced Rad51 foci, it was contemplated that IBR2 may mimic BRC repeats to disrupt the BRCA2-Rad51 interaction and to thereby diminish the IR-induced Rad51 foci formation. To test this possibility, the number of the MCF-7 cells that formed IR-induced Rad51 foci was measured after IBR2 treatment. […] To test whether this effect applies to other molecules involved in DSB repair, the inventors then examined the IR-induced foci formation of g-H2AX, which is histone H2AX phosphorylated at serine 139 by ATM for the recruitment of NBS1, 53BP and BRCA1, but not Rad51.
Immunostaining Rad51 and g-H2AX foci: MCF-7 cells were treated with 20 μM IBR2 for 7 or 19 hours and then g-irradiated at 20 Gy. Cells were incubated for an additional 5 hours with 20 μM IBR2, then fixed with 4% paraformaldehyde in PBS containing 0.5% Triton X-100. The fixed cells were incubated with a-Rad51 antibody (mAb 1F5) or a-g-H2AX antibody (Upstate). Rad51 and g-H2AX foci positive cells were subsequently counted as described (Chen et al., 1999).

[2] = tested on: MCF-7 cells; experiment: Western blot of protein levels; conditions: 20 mM IBR2, time dependent
Description: To examine the impact of IBR2 on Rad51 protein expression, IBR2 treated MCF-7 cells was examined by straight western blot probed with a panel of antibodies against BRCA2, Rad51, Rad50, p84 and Rb. […] Consistent with our FACS analysis (FIG. 4A), the hypo-phosphorylated form of Rb, a marker for G1 phase, was the major form observed in the later time points, further confirming that IBR2 arrests cells at G1 phase (FIG. 4A). It has been reported that BRCA2 level is cell cycle dependent, which expresses low in G1 phase and peaks at G1/S boundary. Therefore the decreased level of BRCA2 in IBR2 treated cells may be due to G1 phase arrest. Different from BRCA2 protein, Rad51 protein is expressed constant throughout the cell cycle in MCF-7 cells (data not shown). Therefore, loss of Rad51 protein may be the direct effect of IBR2 treatment instead of the consequence of G1 arrest. To test whether IBR2 decreases Rad51 levels by destabilization, the inventors performed a stability assay by adding cyclohexamide (CHX) to inhibit de novo protein synthesis. […] Therefore, the inventors contemplate that IBR2 treated MCF-7 cells were arrested at G1, blocked at M phase entry, and died at S/G2 phase.
Western blot analysis: Cells were treated with 20 mM IBR2 or 50 μg/ml cycloheximide (CHX) or 1 μM MG132 and harvested at different time points for western blot analysis. Cells resuspended in Lysis 250 buffer were subjected to three freeze/thaw cycles (liquid nitrogen/37° C.) and then centrifuged at 14,000 rpm for 2 minutes at room temperature. After measuring protein concentration, equal amount of total cellular proteins were subjected to SDS-PAGE and immunoblot analyses were performed as described previously (Chen et al., 1999). Antibodies used were: Rad51 (rabbit 5952); BRCA2 (rabbit PC146, Oncogene); Rb (mAb 11D7); Rad50 (mAb 13B3) and p84 (mAb 5E10). The intensity of bands was quantified by densitometry using Labworks 4.5 software. The relative value of the band intensity was calculated with respect to that of untreated sample after normalization with the p84 signal.

[3] = tested on: MCF-7 cells; experiment: Cell cycle analysis by flow cytometry (FACS); conditions: 20 μM IBR2, time-dependent
Experimental: To explore the mechanism of how IBR2 inhibits cancer cell growth, the inventors analyzed cell cycle progression of IBR2 treated MCF-7 cells by flow cytometry (FACS).
Cell cycle analysis by flow cytometry: To analyze cell cycle distribution, […] MCF-7 cells were seeded in 10-cm dishes for 24 hours and treated with […] IBR2 for various times. Cells were then trypsinized and fixed with 70% ethanol (−20° C.) and stained for 30 minutes with propidium iodide (PI) staining solution (Yun et al., 2005) (50 μg/ml PI, 0.1% sodium citrate, 50 μg/ml RNase A, 0.03% NP-40 in PBS). Flow cytometry analysis was performed using a FACScalibur flow cytometer and cell cycle distribution was analyzed with CellQuest software (Beckton Dickison). 10,000 events were analyzed for each sample and the experiment was repeated twice.

[4] = tested on: non-small-cell lung carcinoma (CALU-1, A427, Sklu-1, CALU-6), osteosarcoma (SaoS2, U2OS) and glioblastoma (T98G) cell lines; experiment: Proliferation of other cancer cell lines; conditions: CALU-1, A427, Sklu-1, CALU-6, SaoS2, U2OS
[5] = tested on: MCF-7 cells; experiment: Fate of S phase cells after hydroxyurea synchronization (BrdU uptake, mitotic index, viable cells)
Experimental: To further examine the fate of cells in S phase upon IBR2 treatment, MCF-7 cells were synchronized at G1/S transition by hydroxyurea treatment and then released to allow S phase entry by washing out the reagents. These cells were treated with 20 μM IBR2 and BrdU, and BrdU uptake was measured for DNA synthesis, as well as the mitotic index and the number of viable cells during an 18-hour period. […] Moreover, the number of mock treated cells doubled at the completion of M phase, while the number of IBR2 treated cells decreased to around 50%.
Cell culture, cell synchronization, BrdU labeling and determination of mitotic index: Breast cancer cell lines and MEF cell lines were cultured in high-glucose Dulbecco modified Eagle medium containing 10% fetal bovine serum. MCF-10A cells were cultured as described previously (Debnath et al., 2003). Cell synchronization at M phase was achieved by treatment with 0.1 μg/ml nocodazole for 8 hours. Cell synchronization at G1/S boundary was achieved by treatment with 1 mM hydroxyurea for 17 hours, 9 hours of release and again with 1 mM hydroxyurea for 14 hours. For BrdU labeling, cells were incubated with BrdU for 30 minutes and fixed for BrdU immunostaining using a BrdU labeling kit (Amersham Biosciences). For determination of mitotic index, cells were fixed in 4% formaldehyde in PBS containing 0.1 μg/ml DAPI for 30 minutes at room temperature and examined by fluorescence microscopy. 500-1000 nuclei per sample were counted to determine the number of M phase cells which only includes prometaphase, metaphase, anaphase and telophase.

Structure (SMILES): O=S(=O)(Cc1ccccc1)N1C=Cc2ccccc2C1c1c[nH]c2ccccc12 (stereo not drawn) [IBR2, 2-(benzylsulfonyl)-1-(1H-indol-3-yl)-1,2-dihydroisoquinoline]
- IR-induced g-H2AX foci formation [1]: no effect on g-H2AX foci formation
- BRCA2 protein level [2]: decreased dramatically
- Rad50 protein level [2]: remained constant
- Rad51 protein level [2]: decreased dramatically
- p84 protein level [2]: remained constant
- G1 fraction [3]: increased
- S and G2/M fractions [3]: depleted
- sub-G1 fraction (apoptotic cells) [3]: significantly increased
- proliferation [4]: significantly inhibited
- DNA synthesis (BrdU uptake), S phase progression ([5]; 20 μM IBR2, 18-hour period): does not interfere with S phase progression
- mitotic index (M phase entry) ([5]; 20 μM IBR2, 18-hour period): no or little IBR2 treated cells entered M phase
- viability at 20 µM ([5]; Homo sapiens, MCF7, 20 μM IBR2, at completion of M phase, read-out: number of viable cells): ~50%

From patent US8293764B2, “Compositions and methods for disruption of BRCA2-Rad51 interaction” (The Regents of the University of California, priority 2004, dated 2012)
